Broadly, the Ki is a dissociation constant, usually derived from enzyme kinetics or from competition with a known ligand. Low values mean a stronger hold on the target, high ones a looser hold on the target.

We go through 1 compound from ChEMBL document CHEMBL1135802, “Pyrrolo[1,3]benzothiazepine-based atypical antipsychotic agents. Synthesis, structure-activity relationship, molecular modeling, and biological studies” (J Med Chem, 2002).

The experiment has as its target T1, Adrenergic receptor alpha-2 (Rattus norvegicus, UniProt P22086+P19328+P22909).
T1 sequence (P22086 whole entry): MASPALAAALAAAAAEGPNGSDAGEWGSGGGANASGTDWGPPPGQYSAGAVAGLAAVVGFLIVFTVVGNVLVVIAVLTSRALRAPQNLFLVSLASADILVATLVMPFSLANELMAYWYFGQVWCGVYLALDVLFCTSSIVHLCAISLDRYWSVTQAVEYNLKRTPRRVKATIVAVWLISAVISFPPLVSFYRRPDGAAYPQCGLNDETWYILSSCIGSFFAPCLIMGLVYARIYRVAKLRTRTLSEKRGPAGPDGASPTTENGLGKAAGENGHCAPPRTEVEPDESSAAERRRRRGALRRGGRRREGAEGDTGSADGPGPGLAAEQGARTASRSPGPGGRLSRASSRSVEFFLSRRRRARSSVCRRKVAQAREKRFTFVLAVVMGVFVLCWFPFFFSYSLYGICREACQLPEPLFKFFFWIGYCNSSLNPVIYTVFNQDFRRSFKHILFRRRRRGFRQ
T1 sequence (P19328 whole entry): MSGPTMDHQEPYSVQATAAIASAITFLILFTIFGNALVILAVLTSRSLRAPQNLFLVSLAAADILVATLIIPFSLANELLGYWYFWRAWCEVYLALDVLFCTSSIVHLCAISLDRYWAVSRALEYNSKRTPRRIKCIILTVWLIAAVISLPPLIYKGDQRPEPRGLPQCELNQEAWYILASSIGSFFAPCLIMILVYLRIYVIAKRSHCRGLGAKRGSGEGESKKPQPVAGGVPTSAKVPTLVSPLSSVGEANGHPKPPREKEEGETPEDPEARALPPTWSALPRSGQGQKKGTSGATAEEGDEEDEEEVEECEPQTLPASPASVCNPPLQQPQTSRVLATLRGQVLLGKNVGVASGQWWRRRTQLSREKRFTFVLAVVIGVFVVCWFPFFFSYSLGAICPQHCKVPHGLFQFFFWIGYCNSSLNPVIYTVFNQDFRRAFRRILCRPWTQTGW
T1 sequence (P22909 whole entry): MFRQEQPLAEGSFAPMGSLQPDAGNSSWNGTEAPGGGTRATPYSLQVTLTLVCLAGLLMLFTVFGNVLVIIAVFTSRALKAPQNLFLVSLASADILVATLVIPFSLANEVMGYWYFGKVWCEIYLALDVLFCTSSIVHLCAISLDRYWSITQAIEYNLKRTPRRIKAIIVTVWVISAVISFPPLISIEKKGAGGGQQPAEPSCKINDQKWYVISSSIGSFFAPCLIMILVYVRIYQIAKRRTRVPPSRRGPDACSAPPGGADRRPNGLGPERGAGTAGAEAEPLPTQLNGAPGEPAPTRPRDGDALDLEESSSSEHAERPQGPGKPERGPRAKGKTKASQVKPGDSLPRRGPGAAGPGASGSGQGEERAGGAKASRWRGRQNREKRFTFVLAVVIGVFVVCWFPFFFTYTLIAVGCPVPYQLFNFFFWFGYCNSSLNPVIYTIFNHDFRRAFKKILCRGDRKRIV
Type of experiment: tissue-based, Frontal cortex.

Description: Half-maximal inhibition of [3H]clonidine binding to Alpha-2 adrenergic receptor in rat frontal cortex homogenate

Compound `CN1CCN([C@@H]2Cn3cccc3Sc3ccc(Cl)cc32)CC1` displayed a Ki of 209 nM.
